Reference: the supplement of paper PMC11061612

Experiments:
Carboplatin = compound: C1CC(C1)(C(=O)[O-])C(=O)[O-].N.N.[Pt+2] [Carboplatin]; details: max 10 µM
How it was run: (§1)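 Cancer cell lines in 1536-well plates (7.5 μl DMEM/F12 or RPMI, 10% FBS) were held 24 hours at 37°C and 5% CO2 and then dosed for 72 hours at a final DMSO of typically 0.2%. Viability was taken from CellTiter-Glo 2.0 luminescence, scaled between blank-well and DMSO-well means. Curves were fitted as two-parameter logistic models with a non-linear mixed effects model, from which the single-agent IC50 was taken.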

AZD5363 = compound: C1CN(CCC1(C(=O)N[C@@H](CCO)C2=CC=C(C=C2)Cl)N)C3=NC=NC4=C3C=CN4 [AZD5363]; details: max 10 µM
How it was run: as §1

AZD1775 = compound: C=CCn1c(=O)c2cnc(Nc3ccc(N4CCN(C)CC4)cc3)nc2n1-c1cccc(C(C)(C)O)n1 [AZD1775]; details: max 3 µM
How it was run: as §1

Trametinib = compound: CC(=O)Nc1cccc(-n2c(=O)n(C3CC3)c(=O)c3c(Nc4ccc(I)cc4F)n(C)c(=O)c(C)c32)c1 [Trametinib]; details: max 1 µM
How it was run: as §1

Paclitaxel = compound: CC(=O)O[C@H]1C(=O)[C@@]2(C)[C@H]([C@H](OC(=O)c3ccccc3)[C@]3(O)C[C@H](OC(=O)[C@H](O)[C@@H](NC(=O)c4ccccc4)c4ccccc4)C(C)=C1C3(C)C)[C@]1(OC(C)=O)CO[C@@H]1C[C@@H]2O [Paclitaxel]; details: max 3 µM
How it was run: as §1

Palbociclib = compound: CC(=O)c1c(C)c2cnc(Nc3ccc(N4CCNCC4)cn3)nc2n(C2CCCC2)c1=O [Palbociclib]; details: max 10 µM
How it was run: as §1

AZD1390 = compound: CC(C)n1c(=O)n(C)c2cnc3cc(F)c(-c4ccc(OCCCN5CCCCC5)nc4)cc3c21 [AZD1390]; details: max 0.3 µM
How it was run: as §1

Venetoclax = compound: CC1(C)CCC(CN2CCN(c3ccc(C(=O)NS(=O)(=O)c4ccc(NCC5CCOCC5)c([N+](=O)[O-])c4)c(Oc4cnc5[nH]ccc5c4)c3)CC2)=C(c2ccc(Cl)cc2)C1 [Venetoclax]; details: max 1 µM
How it was run: as §1

Dasatinib = compound: CC1=C(C(=CC=C1)Cl)NC(=O)C2=CN=C(S2)NC3=CC(=NC(=N3)C)N4CCN(CC4)CCO [Dasatinib]; details: max 2 µM
How it was run: as §1

SG3199 = compound: CC1=CN2[C@@H](C1)C=NC3=CC(=C(C=C3C2=O)OC)OCCCCCOC4=C(C=C5C(=C4)N=C[C@@H]6CC(=CN6C5=O)C)OC [SG3199]; details: max 0.001 µM
How it was run: as §1

AZD2811 = compound: CCN(CCO)CCCOc1ccc2c(Nc3cc(CC(=O)Nc4cccc(F)c4)[nH]n3)ncnc2c1 [AZD2811]; details: max 1 µM
How it was run: as §1

SN-38 = compound: CCc1c2c(nc3ccc(O)cc13)-c1cc3c(c(=O)n1C2)COC(=O)[C@]3(O)CC [SN-38]; details: max 0.3 µM
How it was run: as §1

AZD0156 = compound: CN(C)CCCOc1ccc(-c2ccc3ncc4c(c3c2)n(C2CCOCC2)c(=O)n4C)cn1 [AZD0156]; details: max 3 µM
How it was run: as §1

AZD4320 = compound: CN(CC[C@H](CSC1=CC=CC=C1)NC2=C(C=C(C=C2)S(=O)(=O)NC(=O)C3=CC=C(C=C3)N4CCC(CC4)[C@H](C5=CC=CC=C5C6=CC=C(C=C6)Cl)O)S(=O)(=O)C(F)(F)F)CCO [AZD4320]; details: max 1 µM
How it was run: as §1

Alisertib = compound: COc1cc(Nc2ncc3c(n2)-c2ccc(Cl)cc2C(c2c(F)cccc2OC)=NC3)ccc1C(=O)O [Alisertib]; details: max 10 µM
How it was run: as §1

Etoposide = compound: COc1cc([C@@H]2c3cc4c(cc3[C@@H](O[C@@H]3O[C@@H]5CO[C@@H](C)O[C@H]5[C@H](O)[C@H]3O)[C@H]3COC(=O)[C@H]23)OCO4)cc(OC)c1O [Etoposide]; details: max 10 µM
How it was run: as §1

Gefitinib = compound: COc1cc2ncnc(Nc3ccc(F)c(Cl)c3)c2cc1OCCCN1CCOCC1 [Gefitinib]; details: max 10 µM
How it was run: as §1

Prexasertib = compound: COc1cccc(OCCCN)c1-c1cc(Nc2cnc(C#N)cn2)n[nH]1 [Prexasertib]; details: max 1 µM
How it was run: as §1

Doxorubicin = compound: COc1cccc2c1C(=O)c1c(O)c3c(c(O)c1C2=O)C[C@@](O)(C(=O)CO)C[C@@H]3O[C@H]1C[C@H](N)[C@H](O)[C@H](C)O1 [Doxorubicin]; details: max 1 µM
How it was run: as §1

AZD5153 = compound: COc1nnc2ccc(N3CCC(c4ccc(OCCN5CCN(C)C(=O)[C@H]5C)cc4)CC3)nn12 [AZD5153]; details: max 1 µM
How it was run: as §1

Lapatinib = compound: CS(=O)(=O)CCNCc1ccc(-c2ccc3ncnc(Nc4ccc(OCc5cccc(F)c5)c(Cl)c4)c3c2)o1 [Lapatinib]; details: max 10 µM
How it was run: as §1

AZD8186 = compound: C[C@@H](Nc1cc(F)cc(F)c1)c1cc(C(=O)N(C)C)cc2c(=O)cc(N3CCOCC3)oc12 [AZD8186]; details: max 10 µM
How it was run: as §1

Crizotinib = compound: C[C@@H](Oc1cc(-c2cnn(C3CCNCC3)c2)cnc1N)c1c(Cl)ccc(F)c1Cl [Crizotinib]; details: max 10 µM
How it was run: as §1

Savolitinib = compound: C[C@@H](c1ccc2nccn2c1)n1nnc2ncc(-c3cnn(C)c3)nc21 [Savolitinib]; details: max 1 µM
How it was run: as §1

AZD6738 = compound: C[C@@H]1COCCN1C2=NC(=NC(=C2)C3(CC3)[S@](=N)(=O)C)C4=C5C=CNC5=NC=C4 [AZD6738]; details: max 10 µM
How it was run: as §1

AZD5991 = compound: Cc1c2c(nn1C)CSCc1cc(n(C)n1)CSc1cc(c3ccccc3c1)OCCCc1c(C(=O)O)n(C)c3c-2c(Cl)ccc13 [AZD5991]; details: max 1 µM
How it was run: as §1

AZD7648 = compound: Cc1cc2ncnn2cc1Nc1ncc2c(n1)n(C1CCOCC1)c(=O)n2C [AZD7648]; details: max 10 µM
How it was run: as §1

Taselisib = compound: Cc1nc(-c2cn3c(n2)-c2ccc(-c4cnn(C(C)(C)C(N)=O)c4)cc2OCC3)n(C(C)C)n1 [Taselisib]; details: max 10 µM
How it was run: as §1

Selumetinib = compound: Cn1cnc2c(F)c(Nc3ccc(Br)cc3Cl)c(C(=O)NOCCO)cc21 [Selumetinib]; details: max 10 µM
How it was run: as §1

SRA737 = compound: N#Cc1cnc(Nc2cc(NC[C@H]3CNCCO3)c(C(F)(F)F)cn2)cn1 [SRA737]; details: max 10 µM
How it was run: as §1

MK-2206 = compound: NC1(c2ccc(-c3nc4ccn5c(=O)[nH]nc5c4cc3-c3ccccc3)cc2)CCC1 [MK-2206]; details: max 10 µM
How it was run: as §1

Gemcitabine = compound: Nc1ccn([C@@H]2O[C@H](CO)[C@@H](O)C2(F)F)c(=O)n1 [Gemcitabine]; details: max 0.3 µM
How it was run: as §1

[1] = compound: O=C(Nc1ccc2[nH]nc(-c3ccncc3)c2c1)[C@@H]1CCN(CC(=O)N2CCN(c3ccc(-c4ncccn4)cc3)CC2)C1; details: max 5 µM
How it was run: as §1

Olaparib = compound: O=C(c1cc(Cc2n[nH]c(=O)c3ccccc23)ccc1F)N1CCN(C(=O)C2CC2)CC1 [Olaparib]; details: max 10 µM
How it was run: as §1

5-Fluorouracil = compound: O=c1[nH]cc(F)c(=O)[nH]1 [5-Fluorouracil]; details: max 20 µM
How it was run: as §1

Row | Cell Line | IC50, cell viability 72 h (Carboplatin) [µM] | IC50, cell viability 72 h (AZD5363) [µM] | IC50, cell viability 72 h (AZD1775) [nM] | IC50, cell viability 72 h (Trametinib) [nM] | IC50, cell viability 72 h (Paclitaxel) [nM] | IC50, cell viability 72 h (Palbociclib) [µM] | IC50, cell viability 72 h (AZD1390) [nM] | IC50, cell viability 72 h (Venetoclax) [nM] | IC50, cell viability 72 h (Dasatinib) [nM] | IC50, cell viability 72 h (SG3199) [nM] | IC50, cell viability 72 h (AZD2811) [nM] | IC50, cell viability 72 h (SN-38) [nM] | IC50, cell viability 72 h (AZD0156) [nM] | IC50, cell viability 72 h (AZD4320) [nM] | IC50, cell viability 72 h (Alisertib) [µM] | IC50, cell viability 72 h (Etoposide) [µM] | IC50, cell viability 72 h (Gefitinib) [µM] | IC50, cell viability 72 h (Prexasertib) [nM] | IC50, cell viability 72 h (Doxorubicin) [nM] | IC50, cell viability 72 h (AZD5153) [nM] | IC50, cell viability 72 h (Lapatinib) [µM] | IC50, cell viability 72 h (AZD8186) [µM] | IC50, cell viability 72 h (Crizotinib) [µM] | IC50, cell viability 72 h (Savolitinib) [nM] | IC50, cell viability 72 h (AZD6738) [µM] | IC50, cell viability 72 h (AZD5991) [nM] | IC50, cell viability 72 h (AZD7648) [µM] | IC50, cell viability 72 h (Taselisib) [µM] | IC50, cell viability 72 h (Selumetinib) [µM] | IC50, cell viability 72 h (SRA737) [µM] | IC50, cell viability 72 h (MK-2206) [µM] | IC50, cell viability 72 h (Gemcitabine) [nM] | IC50, cell viability 72 h [1] [µM] | IC50, cell viability 72 h (Olaparib) [µM] | IC50, cell viability 72 h (5-Fluorouracil) [µM]
1 | MKN28 (Gastric Carcinoma) | > 10 | > 10 | > 3000 | > 1000 | 1440 | > 10 | > 300 | > 1000 | > 2000 | > 1 | > 1000 | > 300 | > 3000 | > 1000 | > 10 | > 10 | > 10 | 456 | > 1000 | > 1000 | > 10 | > 10 | > 10 | > 1000 | > 10 | > 1000 | > 10 | > 10 | > 10 | > 10 | > 10 | > 300 | > 5 | > 10 | > 20
2 | CAMA-1 (Breast Carcinoma) | > 10 | 4.86 | > 3000 | > 1000 | 112 | > 10 | > 300 | > 1000 | > 2000 | > 1 | > 1000 | > 300 | > 3000 | > 1000 | > 10 | > 10 | > 10 | > 1000 | > 1000 | > 1000 | > 10 | 7.76 | > 10 | > 1000 | > 10 | > 1000 | > 10 | > 10 | > 10 | > 10 | > 10 | > 300 | > 5 | > 10 | > 20
3 | BFTC-905 (Bladder Carcinoma) | > 10 | > 10 | 680 | 86.4 | 6.02 | > 10 | > 300 | > 1000 | 1530 | > 1 | > 1000 | 4.55 | > 3000 | > 1000 | 1.25 | 1.16 | > 10 | 117 | 196 | 173 | > 10 | > 10 | 5.24 | > 1000 | 3.79 | > 1000 | > 10 | 1.39 | 6.56 | > 10 | > 10 | 10.7 | 1.05 | > 10 | > 20
4 | NCI-H1792 (Lung Adenocarcinoma) | > 10 | > 10 | 730 | 83.5 | 5.92 | > 10 | > 300 | > 1000 | 1550 | > 1 | > 1000 | 159 | > 3000 | > 1000 | 5.11 | 7.11 | > 10 | 97.9 | 558 | 561 | > 10 | > 10 | 6.07 | > 1000 | 4.81 | > 1000 | > 10 | 4.88 | > 10 | > 10 | > 10 | 34.5 | > 5 | > 10 | 7.72
5 | GR-ST (B-Lymphoblastic Leukemia) | > 10 | 4.13 | 375 | > 1000 | 9.98 | 3.06 | > 300 | > 1000 | > 2000 | > 1 | > 1000 | 6.71 | > 3000 | > 1000 | > 10 | 9.02 | > 10 | 16.8 | 684 | 41.2 | 5.91 | 4.95 | 2.38 | > 1000 | 1.74 | > 1000 | > 10 | 0.874 | > 10 | 1.75 | 2.26 | 19.8 | > 5 | > 10 | > 20
